Data set [1] deals with T1, human calcitonin receptor (Homo sapiens, UniProt P30988).
T1 construct: expressed in transfected cells; host or cells: BHK570
T1 sequence (P30988 25-474): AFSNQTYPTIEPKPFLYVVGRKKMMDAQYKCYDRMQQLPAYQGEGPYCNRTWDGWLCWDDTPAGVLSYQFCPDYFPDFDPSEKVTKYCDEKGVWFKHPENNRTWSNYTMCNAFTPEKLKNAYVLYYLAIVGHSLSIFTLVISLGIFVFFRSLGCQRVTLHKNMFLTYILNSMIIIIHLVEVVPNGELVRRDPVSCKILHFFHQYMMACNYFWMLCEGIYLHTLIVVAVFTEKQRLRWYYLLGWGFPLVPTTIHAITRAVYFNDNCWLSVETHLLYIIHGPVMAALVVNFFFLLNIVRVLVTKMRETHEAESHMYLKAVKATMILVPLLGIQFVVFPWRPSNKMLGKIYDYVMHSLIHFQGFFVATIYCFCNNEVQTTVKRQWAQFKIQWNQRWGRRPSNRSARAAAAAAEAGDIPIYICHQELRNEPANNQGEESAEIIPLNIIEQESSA
As to the kind of experiment: Assay (II)a functional CRE-luciferase assay, human calcitonin receptor. Type of data set: cell-based.

Data set [2] is described as follows: Assay (IV) determination of solubility. The data set is classed as physicochemical. The procedure, abridged: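 Stock ~500 nmol/ml in water; 1:1 with 100 mM buffer, pH 3.0–8.0 (glycylglycine ≤5.0, bistrispropane ≥6.0); 18 h RT; spin; HPLC quantitation of soluble polypeptide.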
The target in data set [3] is T2, human amylin receptor (amylin 3(a) receptor: human calcitonin receptor + RAMP-3) (Homo sapiens, UniProt O60896+P30988).
T2 construct: expressed in transfected cells; host or cells: BHK570
T2 sequence (P30988 25-474): T1 sequence (P30988 25-474)
T2 sequence (O60896 24-148 partner): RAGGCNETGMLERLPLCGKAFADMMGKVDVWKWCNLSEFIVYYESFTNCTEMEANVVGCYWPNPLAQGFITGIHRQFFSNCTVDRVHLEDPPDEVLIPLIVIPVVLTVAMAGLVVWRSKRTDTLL
As to the kind of experiment: Assay (II)a functional CRE-luciferase assay, human amylin receptor. Type of data set: cell-based. The text has this: 1. Luciferase Assay Outline
Activation of calcitonin and amylin (coexpression of calcitonin receptor and receptor activity modifying proteins (RAMP)) receptors lead to increased intracellular concentrations of cAMP. Consequently, transcription is activated by promoters containing multiple copies of the cAMP response element (CRE). It is thus possible to measure amylin activity by the use of a CRE luciferase reporter gene introduced into BHK cells also expressing calcitonin or amylin receptors.
A BHK570 cell line was stably transfected with the human calcitonin receptor and a CRE-responsive luciferase reporter gene. The cell line was further transfected with RAMP-3, using standard methods. This turns the calcitonin receptor into an amylin 3(a) receptor. Methotrexate, Neomycin, and Hygromycin are selection markers for luciferase, the calcitonin receptor, and RAMP-3, respectively.
To perform activity assays, BHK calcitonin (a) receptor- or amylin 3(a)-receptor/CRE-luc cells were seeded in white 96 well culture plates at a density of about 20.000 cells/well. […] Further, 50 μl/well of standard or sample in assay buffer were added. After 3 hours incubation at 37° C. and 5% CO2, the assay medium with standard or sample were removed and replaced by 100 μl/well PBS. Further, 100 μl/well LucLite™ was added. The plates were sealed and incubated at room temperature for 30 minutes. Finally, luminescence was measured on a TopCounter (Packard) in SPC (single photon counting) mode.

Where [4] appears, read: Table 7, human calcitonin (CTa) receptor.
[5] abbreviates: Table 11, read-out: CTa receptor human EC50.
[6] abbreviates: pH 3, pH 3.0, read-out: Solubility pH 3.0.
[7] abbreviates: pH 4, pH 4.0, 18 hours at room temperature, Table 2, read-out: Solubility pH 4.0.
[8] abbreviates: pH 4, pH 4.0, read-out: Solubility pH 4.0.
Setting [9] is: pH 5, pH 5.0, read-out: Solubility pH 5.0.
[10] abbreviates: pH 6, pH 6.0, read-out: Solubility pH 6.0.
Setting [11] is: pH 6.5, pH 6.5, read-out: Solubility pH 6.5.
Setting [12] is: pH 7, pH 7.0, 18 hours at room temperature, Table 3, read-out: Solubility pH 7.0.
[13] abbreviates: pH 7, pH 7.0, read-out: Solubility pH 7.0.
The mark [14] stands for this setting: pH 7.5, pH 7.5, read-out: Solubility pH 7.5.
Where [15] appears, read: pH 8, pH 8.0, read-out: Solubility pH 8.0.
[16] abbreviates: Table 2, BHK amylin 3(a)-receptor/CRE-luc cells.
[17] abbreviates: Table 3, BHK amylin 3(a)-receptor/CRE-luc cells.

≈ marks a conversion by molar mass, not a printed value. Like-named read-outs stand apart in the source and are kept apart here. Starred links: 1 amine or outer side, 2 acyl side, 3 side chain; linkers in the order of their positions; H or OH if unused. Positions of bridges follow the written chain, without caps; N, C: chain ends. Residues, ends and D or L forms follow the SMILES beside them. *: point of attachment. C20 diacid = O=C(O)CCCCCCCCCCCCCCCCCCC(=O)*; γGlu = O=C(O)[C@H](CCC(=O)[*:2])N[*:1]; AEEA = NCCOCCOCC(=O)O Bounds are passed on as bounds.

The EC50 is the concentration giving half of the maximal effect. As usually defined, the solubility is how much of the substance goes into solution per volume. `CC[C@H](C)[C@H](NC(=O)[C@@H]1CCCN1C(=O)CNC(=O)[C@H](Cc1ccccc1)NC(=O)[C@H](CC(N)=O)NC(=O)[C@H](CC(N)=O)NC(=O)[C@H](CO)NC(=O)[C@H](CO)NC(=O)[C@H](Cc1c[nH]cn1)NC(=O)[C@H](Cc1c[nH]cn1)NC(=O)[C@H](CC(C)C)NC(=O)[C@H](Cc1ccccc1)NC(=O)[C@H](CCC(=O)O)NC(=O)[C@H](C)NC(=O)[C@H](CC(C)C)NC(=O)[C@H](CCCNC(=N)N)NC(=O)[C@H](CCC(N)=O)NC(=O)[C@@H](NC(=O)[C@H](C)NC(=O)[C@@H]1CSSC[C@H](NC(=O)COCCOCCNC(=O)COCCOCCNC(=O)CC[C@H](NC(=O)CCCCCCCCCCCCCCCCCCC(=O)O)C(=O)O)C(=O)N[C@@H](CC(N)=O)C(=O)N[C@@H]([C@@H](C)O)C(=O)N[C@@H](C)C(=O)N[C@@H]([C@@H](C)O)C(=O)N1)[C@@H](C)O)C(=O)N[C@@H](CC(C)C)C(=O)N1CCC[C@H]1C(=O)N1CCC[C@H]1C(=O)N[C@H](C(=O)N[C@@H](CC(N)=O)C(=O)N[C@H](C(=O)NCC(=O)N[C@@H](CO)C(=O)N[C@@H](CC(N)=O)C(=O)N[C@H](C(=O)N[C@@H](Cc1ccc(O)cc1)C(N)=O)[C@@H](C)O)C(C)C)[C@@H](C)O` [Example 43, N-alpha-[2-(2-{2-[2-(2-{2-[(S)-4-Carboxy-4-(19-carboxyheptadecanoylamino)butyrylamino]ethoxy}ethoxy)acetylamino]ethoxy}ethoxy)acetyl]-[des1,Glu14,His17]-pramlintide] ({C20 diacid-γGlu-AEEA-AEEA}-CNTATCATQRLAEFLHHSSNNFGPILPPTNVGSNTY-NH2; disulfide 1-6): the EC50 in data set [1] (setting [4]) was determined as 0.672 nM; in data set [1] (setting [5]), 0.672 nM; in data set [3] (setting [16]), 0.334 nM; in data set [3] (setting [17]), 0.334 nM; in data set [3] (Table 4), 0.334 nM; in data set [3] (Table 6, human amylin receptor), 0.334 nM. Further, the EC50 in data set [3] (Table 7, human amylin receptor) came out at 0.334 nM; in data set [3] (Table 11), 0.334 nM. Further, the solubility is over 200 µM in data set [2] (setting [6]); over 200 µM in data set [2] (setting [7]); over 200 µM in data set [2] (setting [8]); 194 µM (≈ 896 µg/mL) in data set [2] (setting [9]); 176 µM (≈ 813 µg/mL) in data set [2] (setting [10]); 195 µM (≈ 901 µg/mL) in data set [2] (setting [11]). The solubility in data set [2] (setting [12]), in data set [2] (setting [13]), in data set [2] (setting [14]) and in data set [2] (setting [15]) was over 200 µM in each case.
On to `CC[C@H](C)[C@H](NC(=O)[C@@H]1CCCN1C(=O)CNC(=O)[C@H](Cc1ccccc1)NC(=O)[C@H](CC(N)=O)NC(=O)[C@H](CCCCN)NC(=O)[C@H](CO)NC(=O)[C@H](CO)NC(=O)[C@H](Cc1c[nH]cn1)NC(=O)[C@H](Cc1c[nH]cn1)NC(=O)[C@H](CC(C)C)NC(=O)[C@H](Cc1ccccc1)NC(=O)[C@H](CCC(=O)O)NC(=O)[C@H](C)NC(=O)[C@H](CC(C)C)NC(=O)[C@H](CCCNC(=N)N)NC(=O)[C@H](CCC(N)=O)NC(=O)[C@@H](NC(=O)[C@H](C)NC(=O)[C@@H]1CSSC[C@H](NC(=O)[C@H](CCCCN)NC(=O)COCCOCCNC(=O)COCCOCCNC(=O)CC[C@H](NC(=O)CCCCCCCCCCCCCCCCCCC(=O)O)C(=O)O)C(=O)N[C@@H](CC(N)=O)C(=O)N[C@@H]([C@@H](C)O)C(=O)N[C@@H](C)C(=O)N[C@@H]([C@@H](C)O)C(=O)N1)[C@@H](C)O)C(=O)N[C@@H](CC(C)C)C(=O)N1CCC[C@H]1C(=O)N1CCC[C@H]1C(=O)N[C@H](C(=O)N[C@@H](CC(N)=O)C(=O)N[C@H](C(=O)NCC(=O)N[C@@H](CO)C(=O)N[C@@H](CC(N)=O)C(=O)N[C@H](C(=O)N1CCC[C@H]1C(N)=O)[C@@H](C)O)C(C)C)[C@@H](C)O` [Example 168, N-alpha-[2-(2-{2-[2-(2-{2-[(S)-4-Carboxy-4-(19-carboxyheptadecanoylamino)butyrylamino]ethoxy}ethoxy)acetylamino]ethoxy}ethoxy)acetyl]-[Glu14,His17,Lys21,Pro37]-pramlintide] ({C20 diacid-γGlu-AEEA-AEEA}-KCNTATCATQRLAEFLHHSSKNFGPILPPTNVGSNTP-NH2; disulfide 2-7), for which the EC50 turned out to be 0.085 nM in data set [1] (setting [4]); 0.085 nM in data set [1] (setting [5]); 0.071 nM in data set [3] (setting [16]); 0.071 nM in data set [3] (setting [17]); 0.071 nM in data set [3] (Table 4); 0.071 nM in data set [3] (Table 6, human amylin receptor). For the same compound, the EC50 in data set [3] (Table 7, human amylin receptor) stood at 0.071 nM; in data set [3] (Table 11), 0.071 nM. The solubility in data set [2] (setting [6]), in data set [2] (setting [7]), in data set [2] (setting [8]), in data set [2] (setting [9]), in data set [2] (setting [10]) and in data set [2] (setting [11]) was over 200 µM throughout. Besides, the solubility in data set [2] (setting [12]), in data set [2] (setting [13]), in data set [2] (setting [14]) and in data set [2] (setting [15]) was over 200 µM each time.
For `CC[C@H](C)[C@H](NC(=O)[C@@H]1CCCN1C(=O)CNC(=O)[C@H](Cc1ccccc1)NC(=O)[C@H](CC(N)=O)NC(=O)[C@H](CC(N)=O)NC(=O)[C@H](CO)NC(=O)[C@H](CO)NC(=O)[C@H](Cc1cnc[nH]1)NC(=O)[C@H](Cc1cnc[nH]1)NC(=O)[C@H](CC(C)C)NC(=O)[C@H](Cc1ccccc1)NC(=O)[C@H](CCC(=O)O)NC(=O)[C@H](C)NC(=O)[C@H](CC(C)C)NC(=O)[C@H](CCCNC(=N)N)NC(=O)[C@H](CCC(N)=O)NC(=O)[C@@H](NC(=O)[C@H](C)NC(=O)[C@@H]1CSSC[C@H](NC(=O)[C@H](CCC(=O)O)NC(=O)CC[C@H](NC(=O)CCCCCCCCCCCCCCCCCCC(=O)O)C(=O)O)C(=O)N[C@@H](CC(N)=O)C(=O)N[C@@H]([C@@H](C)O)C(=O)N[C@@H](C)C(=O)N[C@@H]([C@@H](C)O)C(=O)N1)[C@@H](C)O)C(=O)N[C@@H](CC(C)C)C(=O)N1CCC[C@H]1C(=O)N1CCC[C@H]1C(=O)N[C@H](C(=O)N[C@@H](CC(N)=O)C(=O)N[C@H](C(=O)NCC(=O)N[C@@H](CO)C(=O)N[C@@H](CC(N)=O)C(=O)N[C@H](C(=O)N[C@@H](Cc1ccc(O)cc1)C(N)=O)[C@@H](C)O)C(C)C)[C@@H](C)O` [Example 29, N-alpha-[(S)-4-Carboxy-4-(19-carboxynonadecanoylamino)butyryl]-[Glu1,Glu14,His17]-pramlintide] ({C20 diacid-γGlu}-ECNTATCATQRLAEFLHHSSNNFGPILPPTNVGSNTY-NH2; disulfide 2-7), the EC50 was 0.657 nM in data set [1] (setting [4]) and 0.377 nM in data set [3] (setting [16]). Moreover, the solubility at 18 h in data set [2] (bistrispropane buffer, pH 6, pH 6.0, read-out: Solubility pH 6.0) was over 200 µM; in data set [2] (bistrispropane buffer, pH 6.5, pH 6.5, read-out: Solubility pH 6.5), over 200 µM; in data set [2] (bistrispropane buffer, pH 7, pH 7.0, 18 hours at room temperature, Table 3, read-out: Solubility pH 7.0) it was over 200 µM; in data set [2] (bistrispropane buffer, pH 7, pH 7.0, read-out: Solubility pH 7.0), over 200 µM; in data set [2] (bistrispropane buffer, pH 7.5, pH 7.5, read-out: Solubility pH 7.5) it was over 200 µM; in data set [2] (bistrispropane buffer, pH 8, pH 8.0, read-out: Solubility pH 8.0), over 200 µM. For the same compound, the solubility at 18 h in data set [2] (glycylglycine buffer, pH 3, pH 3.0, read-out: Solubility pH 3.0) is over 200 µM; in data set [2] (glycylglycine buffer, pH 4, pH 4.0, 18 hours at room temperature, Table 2, read-out: Solubility pH 4.0), over 200 µM; in data set [2] (glycylglycine buffer, pH 4, pH 4.0, read-out: Solubility pH 4.0), over 200 µM; in data set [2] (glycylglycine buffer, pH 5, pH 5.0, read-out: Solubility pH 5.0), 107 µM (≈ 477 µg/mL).

The record behind these values is patent publication US8722849B2, “Polypeptides” (Novo Nordisk A/S, priority 2011, dated 2014).
